# Assay results as given in ChEMBL document CHEMBL5331052, “Discovery of a novel water-soluble, rapid-release triptolide prodrug with improved drug-like properties and high efficacy in human acute myeloid leukemia” (Eur J Med Chem, 2022).
# What was measured:
# [1] = Prodrug conversion in Sprague-Dawley rat plasma assessed as triptolide release at 500 ng/ml measured after 8 hrs by UPLC-MS/MS analysis; type: ADME, cell-free
# MV4-11 [2] = assay: Antitumor activity against human MV4-11 cells xenografted in BALB/c nude mouse assessed as tumor growth inhibition at 0.5 mg/kg, po measured once every 2 days for 20 days relative to control; type: functional; conditions: MV4-11, 480 h, time 20 day, read-out: TGI
# MV4-11 [3] = assay: Antitumor activity against human MV4-11 cells xenografted in BALB/c nude mouse assessed as tumor growth inhibition at 1 mg/kg, po measured once every 2 days for 20 days relative to control; type: functional; conditions: MV4-11, 480 h, time 20 day, read-out: TGI
# [4] = Prodrug conversion in human plasma assessed as triptolide release at 1 mg/ml measured after 1.5 hrs by HPLC analysis; type: ADME, cell-free
# [5] = Chemical stability of the compound in water assessed as parent compound remaining at 2 mg/ml measured after 4 hrs by HPLC analysis; type: physicochemical; conditions: read-out: Stability
# [6] = Prodrug conversion in Sprague-Dawley rat plasma assessed as triptolide release at 50 ug/ml measured after 30 mins by HPLC analysis; type: ADME, cell-free; conditions: 0.5 h, dose 50 µg/ml
# [7] = Aqueous solubility of compound at 1 to 10 mg/ml by HPLC analysis; type: physicochemical; conditions: water; dose 1-10 mg/ml
# [8] = Chemical stability of the compound in water assessed as parent compound remaining at 2 mg/ml measured immediately by HPLC analysis; type: physicochemical; conditions: read-out: Stability
# [9] = Prodrug conversion in human plasma assessed as triptolide release at 50 ug/ml measured after 45 mins by HPLC analysis; type: ADME, cell-free; conditions: 0.75 h, dose 50 µg/ml
smiles,measurement,setting,value
CC(C)[C@]12O[C@H]1[C@@H]1O[C@]13[C@]1(O[C@H]1C[C@H]1C4=C(CC[C@@]13C)C(=O)OC4)[C@@H]2OCOP(=O)([O-])[O-].[Na+].[Na+] [MINNELIDE],Drug metabolism,[1],Metabolite_Detected
CCc1nc(C(N)=O)c(Nc2ccc(N3CCC(N4CCN(C)CC4)CC3)c(OC)c2)nc1NC1CCOCC1 [GILTERITINIB],inhibition in vivo at 0.5 mg/kg,MV4-11 [2],48.3%
same,inhibition in vivo at 1 mg/kg,MV4-11 [3],72%
CC(C)[C@]12O[C@H]1[C@@H]1O[C@]13[C@]1(O[C@H]1C[C@H]1C4=C(CC[C@@]13C)C(=O)OC4)[C@@H]2OC(=O)CCCOC(=O)CN1CCOCC1.Cl,Drug metabolism,[4],Metabolite_Detected
same,"remaining at 4 h, 2 mg/ml",[5],94.8%
same,Drug metabolism,[6],Metabolite_Detected
same,solubility,[7],7490 µg/mL
same,"remaining at 0 h, 2 mg/ml",[8],95%
same,Drug metabolism,[9],Metabolite_Detected
